Activity calls are given as the source filed them. No cut-off for these calls is given here.
Tests used:
[1] = molecular target: T1, Autotaxin (Homo sapiens, UniProt Q13822); assay: Inhibition of human recombinant ATX lysophospholipase activity expressed in insect sf9 cells using FS-3 fluorogenic substrate preincubated for 10 mins measured after 5 and 25 mins by fluorometric analysis
[2] = Aqueous solubility of the compound; type: physicochemical; conditions: buffer
[3] = molecular target: T1, Autotaxin; assay: Inhibition of human recombinant ATX lysophospholipase activity expressed in insect sf9 cells using FS-3 fluorogenic substrate at 10 uM preincubated for 10 mins measured after 5 and 25 mins by fluorometric analysis

Row | Structure (SMILES) | Ki [1] | further results
1 | CCCCCCCCCC(=O)Nc1ccc(CP(=O)(O)O)cc1.NC1CCCCC1 | 18 nM | 
2 | CCCCCCCCCCCCCC(=O)Nc1ccc(C(F)P(=O)(O)O)cc1.NC1CCCCC1 (stereo not given) | 6.1 nM | 
3 | CCCCCCCCCC(=O)Nc1ccc(C(O)P(=O)(O)O)cc1.NC1CCCCC1 (stereo not given) | 24.2 nM | solubility ([2]; read-out: solubility): 4000 µg/mL
4 | CCCCCCCCCCCCCC(=O)Nc1ccc(CP(=O)(O)O)cc1.NC1CCCCC1 | 9 nM | solubility ([2]; read-out: solubility): 1000 µg/mL
5 | CCOP(=O)(Cc1ccc(N)cc1)OCC |  | inhibition [3]: inactive; solubility [2]: soluble
6 | CCCCCCC(=O)Nc1ccc(C(F)P(=O)(O)O)cc1.NC1CCCCC1 (stereo not given) | 834 nM | 
7 | CCCCCCCCCCCCCC(=O)Nc1ccc(C(Br)P(=O)(O)O)cc1.NC1CCCCC1 (stereo not given) | 8.1 nM | 
8 | CCCCCCCCCCCCCC(=O)Nc1ccc(C(O)P(=O)(O)O)cc1.NC1CCCCC1 (stereo not given) | 24 nM | 
9 | CCCCCCC(=O)Nc1ccc(CP(=O)(O)O)cc1.NC1CCCCC1 | 512 nM | 
10 | COCCOCCOCCC(=O)Nc1ccc(CP(=O)(O)O)cc1.NC1CCCCC1 |  | inhibition [3]: inactive
11 | CCCCCCC(=O)Nc1ccc(C(O)P(=O)(O)O)cc1.NC1CCCCC1 (stereo not given) | 1010 nM | 
12 | CCCCCCCCCC(=O)Nc1ccc(C(F)P(=O)(O)O)cc1.NC1CCCCC1 (stereo not given) | 72 nM | 
